# Assay results taken from patent US12138254B2, “Chronic nightly dosing of lasmiditan for migraine prevention” (Eli Lilly and Company, priority 2018, dated 2024).
# Tested on: dural plasma protein extravasation
# Experiment: Trigeminal stimulation-induced dural plasma protein extravasation (PPE) in rats
# Type: in vivo, Sprague-Dawley rats
# Source text: Migraine is a painful condition thought to involve neurogenic inflammation of the dural membrane and activation of the trigeminal nervous system. The 5-HT1F receptor is widely expressed in the CNS and peripheral nerves, including the trigeminal ganglia, dorsal root ganglia and trigeminal nucleus caudalis. Plasma protein extravasation (PPE), one component of neurogenic inflammation, can be induced in the dura of rats by electrically stimulating the trigeminal ganglion. Considering the role of the trigeminal nerve in the physiology of migraine, this study is useful to characterize the ability of lasmiditan-hemisuccinate to block plasma protein extravasation in the dura of rats following electrical stimulation of the trigeminal ganglion.
# To investigate the potential of lasmiditan to modify the dysfunction in the target tissue, the duration of effect following a single oral dose of lasmiditan-hemisuccinate was also determined. Electrical stimulation of the trigeminal ganglion of rats and guinea pigs can be used to induce neurogenic inflammation in the meninges (dura). Briefly, unilateral electrical stimulation of either the left or right trigeminal ganglion using electrodes implanted stereotaxically is used to induce ipsilateral neurogenic inflammation and the increased extravasation of plasma proteins.
# Lasmiditan-hemisuccinate is dissolved in sterile water. All doses of lasmiditan are reported as free base equivalent doses, accounting for the weight of the salt. Envigo Sprague-Dawley, Sprague-Dawley male rats (250-350 grams, n=4/group) are fasted overnight prior to dosing. The animals are orally gavaged (2 mL/kg dose volume) with test compound or vehicle one hour prior to stimulation time and returned to their cages with only water available. Approximately 50 minutes post-dosing, the rats are anesthetized with Nembutal (65 mg/kg, ip.) and implanted with stainless steel stimulating electrodes (Rhodes Medical Systems, Inc.) to a depth of 9.2 mm. from the dura. The femoral vein is exposed and fluorescein isothiocyanate-labeled bovine serum albumin (FITC-BSA) (20 mg/kg, iv.), is injected into the femoral vein 2 minutes prior to stimulation. The FITC-BSA functions as a marker for protein extravasation. The left trigeminal ganglion is stimulated for 5 minutes at a current intensity of 1.0 mA (5 Hz, 5 msec pulse duration) with a Model S48 Grass Instrument Stimulator with PSIU6 photoelectric isolation unit (Grass-Telefactor). Five minutes following stimulation, a blood sample is collected by cardiac puncture and the rats are sacrificed by exsanguination with 40 ml of saline. One milliliter of blood is collected and placed in a 1.5 ml EDTA coated tube (Fisher Cat. #540734) on ice. Plasma is separated via centrifugation at 10,000 rpm (941 g) for thirty minutes at 4° C. The top of the skull is removed to collect the brain and dural membranes. The brain and plasma samples are frozen at −80° C. until thawed for compound quantification. The membrane samples are removed from both hemispheres, rinsed with water, and spread flat on microscope slides. The slides are dried for 15 minutes on a slide warmer, then the tissues are cover-slipped with a 70% glycerol/water solution. A fluorescence microscope (Zeiss) equipped with a grating monochromator and a spectrophotometer is used to quantify the amount of FITC-BSA dye in each dural sample. The extravasation induced by electrical stimulation of the trigeminal ganglion is an ipsilateral effect (i.e. occurs only on the side of the dura in which the trigeminal ganglion was stimulated). This allows the other (unstimulated) half of the dura to be used as the control. The ratio of extravasation in the dura from the stimulated side versus the unstimulated side is calculated and reported as the extravasation ratio for each animal. The mean extravasation ratio and standard error of the mean (SEM) are calculated for each treatment group. Controls yield a ratio of approximately 1.8. […]
substance,measurement,setting,value
"2,4,6-trifluoro-N-[6-(1-methyl-piperidine-4-carbonyl)-pyridin-2-yl]-benzamide hemi-succinate salt [Lasmiditan-hemisuccinate]",inhibition of dural plasma protein extravasation vs vehicle,"1 mg/kg po, 1 hour post-dose",statistically different vs vehicle
same,inhibition of dural plasma protein extravasation vs vehicle,"10 mg/kg po, 1 hour post-dose",statistically different vs vehicle
same,inhibition of dural plasma protein extravasation,"one hour following oral administration to rats, 0.1-10 mg/kg",dose-dependently inhibits
same,inhibition of dural plasma protein extravasation vs vehicle,"single 10 mg/kg po, 24 hours post-dose",significantly blocks
same,inhibition of dural plasma protein extravasation vs vehicle,"single 10 mg/kg po, 48 hours post-dose",not effective
